According to patent publication US9695155B2, “Herbicidal substituted pyrimidinyloxy benzene compounds” (E. I. DU PONT DE NEMOURS AND COMPANY, priority 2013, dated 2017):

Experiments:
Assay in all cases: Test E preemergence
soybean = assay type: in vivo, Glycine max; conditions: for Soybean plant response rating: scale 0 to 100 (0 no effect, 100 complete control); for Plant response rating, Soybean: 125 g ai/ha, scale 0 to 100, 0 no effect, 100 complete control
In short: (§1)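 Response was scored visually on a 0-100 scale (100 = complete control) versus controls after 14 to 21 days in the greenhouse. Test chemicals, formulated with surfactant in a non-phytotoxic solvent mixture, had been applied preemergence to seeds in silt loam soil or postemergence to 1- to 4-leaf plants in potting medium.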

velvetleaf = assay type: in vivo, Abutilon theophrasti; conditions: for Velvetleaf plant response rating: scale 0 to 100 (0 no effect, 100 complete control); for Plant response rating, Velvetleaf: 125 g ai/ha, scale 0 to 100, 0 no effect, 100 complete control
In short: as §1

wild poinsettia = assay type: in vivo, Euphorbia heterophylla; conditions: for Poinsettia, Wild plant response rating: scale 0 to 100 (0 no effect, 100 complete control); for Plant response rating, Poinsettia, Wild: 125 g ai/ha, scale 0 to 100, 0 no effect, 100 complete control
In short: as §1

palmer pigweed = assay type: in vivo, Amaranthus palmeri; conditions: for Pigweed, Palmer plant response rating: scale 0 to 100 (0 no effect, 100 complete control); for Plant response rating, Pigweed, Palmer: 125 g ai/ha, scale 0 to 100, 0 no effect, 100 complete control
In short: as §1

waterhemp = assay type: in vivo, Amaranthus rudis; conditions: for Waterhemp plant response rating: scale 0 to 100 (0 no effect, 100 complete control); for Plant response rating, Waterhemp: 125 g ai/ha, scale 0 to 100, 0 no effect, 100 complete control
In short: as §1

surinam grass = assay type: in vivo, Brachiaria decumbens; conditions: for Surinam Grass plant response rating: scale 0 to 100 (0 no effect, 100 complete control); for Plant response rating, Surinam Grass: 125 g ai/ha, scale 0 to 100, 0 no effect, 100 complete control
In short: as §1

Brazilian crabgrass = assay type: in vivo, Digitaria horizontalis; conditions: for Crabgrass, Brazil plant response rating: scale 0 to 100 (0 no effect, 100 complete control); for Plant response rating, Crabgrass, Brazil: 125 g ai/ha, scale 0 to 100, 0 no effect, 100 complete control
In short: as §1

fall panicum = assay type: in vivo, Panicum dichotomiflorum; conditions: for Panicum, Fall plant response rating: scale 0 to 100 (0 no effect, 100 complete control); for Plant response rating, Panicum, Fall: 125 g ai/ha, scale 0 to 100, 0 no effect, 100 complete control
In short: as §1

green foxtail = assay type: in vivo, Setaria viridis; conditions: for Foxtail, Green plant response rating: scale 0 to 100 (0 no effect, 100 complete control); for Plant response rating, Foxtail, Green: 125 g ai/ha, scale 0 to 100, 0 no effect, 100 complete control
In short: as §1

ragweed = assay type: in vivo, Ambrosia elatior; conditions: for Ragweed plant response rating: scale 0 to 100 (0 no effect, 100 complete control); for Plant response rating, Ragweed: 125 g ai/ha, scale 0 to 100, 0 no effect, 100 complete control
In short: as §1

sandbur = assay type: in vivo, Cenchrus echinatus; conditions: for Sandbur plant response rating: scale 0 to 100 (0 no effect, 100 complete control); for Plant response rating, Sandbur: 125 g ai/ha, scale 0 to 100, 0 no effect, 100 complete control
In short: as §1

nightshade = assay type: in vivo, Solanum ptycanthum; conditions: for Nightshade plant response rating: scale 0 to 100 (0 no effect, 100 complete control); for Plant response rating, Nightshade: 125 g ai/ha, scale 0 to 100, 0 no effect, 100 complete control
In short: as §1

kochia = assay type: in vivo, Kochia scoparia; conditions: for Kochia plant response rating: scale 0 to 100 (0 no effect, 100 complete control); for Plant response rating, Kochia: 125 g ai/ha, scale 0 to 100, 0 no effect, 100 complete control
In short: as §1

hairy beggarticks = assay type: in vivo, Bidens pilosa; conditions: for Beggarticks plant response rating: scale 0 to 100 (0 no effect, 100 complete control); for Plant response rating, Beggarticks: scale 0 to 100, 0 no effect, 100 complete control
In short: as §1

FCc1cccc(Oc2ncc(Cl)cn2)c1-n1cc(Cl)cn1 [Compound 250]
Soybean plant response rating (soybean; 31 g ai/ha): 0
Soybean plant response rating (soybean; 62 g ai/ha): 15
Plant response rating, Soybean (soybean): 65
Velvetleaf plant response rating (velvetleaf; 31 g ai/ha): 75
Velvetleaf plant response rating (velvetleaf; 62 g ai/ha): 75
Plant response rating, Velvetleaf (velvetleaf): 100
Poinsettia, Wild plant response rating (wild poinsettia; 31 g ai/ha): 0
Poinsettia, Wild plant response rating (wild poinsettia; 62 g ai/ha): 0
Plant response rating, Poinsettia, Wild (wild poinsettia): 20
Pigweed, Palmer plant response rating (palmer pigweed; 31 g ai/ha): 0
Pigweed, Palmer plant response rating (palmer pigweed; 62 g ai/ha): 0
Plant response rating, Pigweed, Palmer (palmer pigweed): 100
Waterhemp plant response rating (waterhemp; 31 g ai/ha): 0
Waterhemp plant response rating (waterhemp; 62 g ai/ha): 0
Plant response rating, Waterhemp (waterhemp): 100
Surinam Grass plant response rating (surinam grass; 31 g ai/ha): 0
Surinam Grass plant response rating (surinam grass; 62 g ai/ha): 0
Plant response rating, Surinam Grass (surinam grass): 0
Crabgrass, Brazil plant response rating (Brazilian crabgrass; 16 g ai/ha): 0
Crabgrass, Brazil plant response rating (Brazilian crabgrass; 31 g ai/ha): 0
Crabgrass, Brazil plant response rating (Brazilian crabgrass; 62 g ai/ha): 5
Plant response rating, Crabgrass, Brazil (Brazilian crabgrass): 98
Panicum, Fall plant response rating (fall panicum; 31 g ai/ha): 0
Panicum, Fall plant response rating (fall panicum; 62 g ai/ha): 0
Plant response rating, Panicum, Fall (fall panicum): 100
Foxtail, Green plant response rating (green foxtail; 16 g ai/ha): 0
Foxtail, Green plant response rating (green foxtail; 31 g ai/ha): 0
Foxtail, Green plant response rating (green foxtail; 62 g ai/ha): 0
Plant response rating, Foxtail, Green (green foxtail): 90
Ragweed plant response rating (ragweed; 31 g ai/ha): 0
Ragweed plant response rating (ragweed; 62 g ai/ha): 0
Plant response rating, Ragweed (ragweed): 0
Sandbur plant response rating (sandbur; 31 g ai/ha): 0
Sandbur plant response rating (sandbur; 62 g ai/ha): 0
Plant response rating, Sandbur (sandbur): 25
Nightshade plant response rating (nightshade; 31 g ai/ha): 0
Nightshade plant response rating (nightshade; 62 g ai/ha): 35
Plant response rating, Nightshade (nightshade): 98
Kochia plant response rating (kochia; 31 g ai/ha): 0
Kochia plant response rating (kochia; 62 g ai/ha): 0
Plant response rating, Kochia (kochia): 98
Beggarticks plant response rating (hairy beggarticks; 16 g ai/ha, preemergence): 0
Beggarticks plant response rating (hairy beggarticks; 31 g ai/ha, preemergence): 0
Beggarticks plant response rating (hairy beggarticks; 62 g ai/ha, preemergence): 0
Plant response rating, Beggarticks (hairy beggarticks; preemergence, 125 g ai/ha): 20

N#Cc1cccc(Oc2ncc(F)cn2)c1-n1cc(I)cn1 [Compound 86]
Soybean plant response rating (soybean; 16 g ai/ha): 0
Soybean plant response rating (soybean; 31 g ai/ha): 0
Soybean plant response rating (soybean; 62 g ai/ha): 35
Plant response rating, Soybean (soybean): 60
Velvetleaf plant response rating (velvetleaf; 16 g ai/ha): 0
Velvetleaf plant response rating (velvetleaf; 31 g ai/ha): 0
Velvetleaf plant response rating (velvetleaf; 62 g ai/ha): 50
Plant response rating, Velvetleaf (velvetleaf): 80
Poinsettia, Wild plant response rating (wild poinsettia; 16 g ai/ha): 0
Poinsettia, Wild plant response rating (wild poinsettia; 31 g ai/ha): 10
Poinsettia, Wild plant response rating (wild poinsettia; 62 g ai/ha): 20
Plant response rating, Poinsettia, Wild (wild poinsettia): 65
Pigweed, Palmer plant response rating (palmer pigweed; 31 g ai/ha): 0
Pigweed, Palmer plant response rating (palmer pigweed; 62 g ai/ha): 100
Plant response rating, Pigweed, Palmer (palmer pigweed): 100
Waterhemp plant response rating (waterhemp; 16 g ai/ha): 0
Waterhemp plant response rating (waterhemp; 31 g ai/ha): 70
Waterhemp plant response rating (waterhemp; 62 g ai/ha): 100
Plant response rating, Waterhemp (waterhemp): 100
Surinam Grass plant response rating (surinam grass; 16 g ai/ha): 0
Surinam Grass plant response rating (surinam grass; 31 g ai/ha): 0
Surinam Grass plant response rating (surinam grass; 62 g ai/ha): 0
Plant response rating, Surinam Grass (surinam grass): 0
Crabgrass, Brazil plant response rating (Brazilian crabgrass; 16 g ai/ha): 0
Crabgrass, Brazil plant response rating (Brazilian crabgrass; 31 g ai/ha): 0
Crabgrass, Brazil plant response rating (Brazilian crabgrass; 62 g ai/ha): 75
Plant response rating, Crabgrass, Brazil (Brazilian crabgrass): 95
Panicum, Fall plant response rating (fall panicum; 16 g ai/ha): 0
Panicum, Fall plant response rating (fall panicum; 31 g ai/ha): 35
Panicum, Fall plant response rating (fall panicum; 62 g ai/ha): 90
Plant response rating, Panicum, Fall (fall panicum): 100
Foxtail, Green plant response rating (green foxtail; 16 g ai/ha): 0
Foxtail, Green plant response rating (green foxtail; 31 g ai/ha): 0
Foxtail, Green plant response rating (green foxtail; 62 g ai/ha): 15
Plant response rating, Foxtail, Green (green foxtail): 75
Ragweed plant response rating (ragweed; 16 g ai/ha): 0
Ragweed plant response rating (ragweed; 31 g ai/ha): 0
Ragweed plant response rating (ragweed; 62 g ai/ha): 5
Plant response rating, Ragweed (ragweed): 20
Sandbur plant response rating (sandbur; 16 g ai/ha): 0
Sandbur plant response rating (sandbur; 31 g ai/ha): 10
Sandbur plant response rating (sandbur; 62 g ai/ha): 10
Plant response rating, Sandbur (sandbur): 10
Nightshade plant response rating (nightshade; 16 g ai/ha): 0
Nightshade plant response rating (nightshade; 31 g ai/ha): 0
Nightshade plant response rating (nightshade; 62 g ai/ha): 0
Plant response rating, Nightshade (nightshade): 98
Kochia plant response rating (kochia; 16 g ai/ha): 0
Kochia plant response rating (kochia; 31 g ai/ha): 90
Kochia plant response rating (kochia; 62 g ai/ha): 100
Plant response rating, Kochia (kochia): 100
Beggarticks plant response rating (hairy beggarticks; 16 g ai/ha, preemergence): 0
Beggarticks plant response rating (hairy beggarticks; 31 g ai/ha, preemergence): 0
Plant response rating, Beggarticks (hairy beggarticks; Preemergence, 62 g ai/ha): 35
Plant response rating, Beggarticks (hairy beggarticks; preemergence, 125 g ai/ha): 70
